The source made the active and inactive calls. The calls are words filed in the database; no cut-off is given here.
Assays:
[1] = molecular target: T1, Cyclin-dependent kinase 12/13 (Homo sapiens) (UniProt Q14004+Q9NYV4); details: Jurkat, dose 500.0 nM, time 6.0 hrs
[2] = molecular target: T1, Cyclin-dependent kinase 12/13 (Homo sapiens); details: Jurkat, dose 25.0 nM, time 6.0 hrs
[3] = molecular target: T1, Cyclin-dependent kinase 12/13 (Homo sapiens); details: Jurkat, dose 500.0 nM, time 4.0 hrs

| SMILES | inhibition [1] | inhibition [2] | inhibition [3] |
| --- | --- | --- | --- |
| C=CC(=O)Nc1ccc(OC(=O)N2CCC[C@@H](Nc3ncc(SCc4ncc(C(C)(C)C)o4)s3)C2)cc1 | Active |  |  |
| CN(C)C/C=C/C(=O)NC1CCCC(C(=O)Nc2ncc(SCc3ncc(C(C)(C)C)o3)s2)C1 (stereo not given) | Active |  |  |
| C=CC(=O)Nc1cccc(C(=O)N2CCCC(Nc3ncc(SCc4ncc(C(C)(C)C)o4)s3)C2)c1 (stereo not given) | Active | inactive |  |
| C=CC(=O)Nc1ccc(C(=O)N2CCC[C@@H](Nc3ncc(SCc4ncc(C(C)(C)C)o4)s3)C2)c(C)c1 |  |  | Active |

From ChEMBL document CHEMBL4739712, “Inhibitors of cyclin-dependent kinases” (2020)
